Key:
[1] = system: primordial follicles in cultured mouse ovaries; experiment: Culture of postnatal day 4 mouse ovaries with PTEN inhibitor, morphological analysis; format: cell-based; settings: postnatal day 4 mouse ovaries cultured for 8 days, 10 μM inhibitor vs. carrier
Experimental: Postnatal day 4 mouse ovaries containing primordial follicles were cultured for 8 days with carrier (A) or PTEN inhibitor bpv (Hopic) (B).
Postnatal day 4 mouse ovaries were removed aseptically and the whole ovary was cultured in a Cell Strainer (40 μm pore size) (BD Biosciences, Stockholm, Sweden) in 1 ml alpha-MEM medium (Gibco-BRL) supplemented with 28 mM ascorbic acid and 0.3% (w/v) BSA, with or without 10 μM of the PTEN inhibitor bpV-HOpic (Dipotassium Bisperoxo(5-hydroxypyridine-2-carboxyl)oxovanadate (V), K2[VO(O2)2C6H4NO3]). The cultured ovaries were incubated in a humidified incubator (5% CO2, 37° C.) with one-third of the medium exchanged for fresh medium every day for the duration of the culture period. For fixation, the ovaries were washed once in PBS and fixed overnight in 4% paraformaldehyde, and embedded for morphological analysis.

[2] = system: Akt; experiment: Western blot of Akt activation (p-Akt, serine 473) in oocytes after Kit ligand treatment; format: cell-based, mouse; settings: 100 ng/ml, 2 min; PD12-14 Pten loxP/loxP; GCre+ oocytes vs. control oocytes
Experimental: Oocytes were isolated from ovaries of Pten^loxP/loxP; GCre+ and Pten^loxP/loxP mice at PD5 and PD12-14, and western blots were performed (A) Levels of p-Akt (serine 473) and total Akt in PD12-14 Pten^loxP/loxP; GCre+ and Pten^loxP/loxP oocytes. (B) Activation of Akt (p-Akt, serine 473) by Kit ligand (KL) treatment (100 ng/ml, 2 min) in PD12-14 Pten^loxP/loxP; GCre+ and Pten^loxP/loxP oocytes. Levels of Akt were used as internal controls. (C) Signaling studies in Pten^loxP/loxP; GCre+ and Pten^loxP/loxP oocytes at PD5 and PD12-14, showing levels of p-Akt (serine 473), rpS6, p-rpS6 (serine 235/6), p-mTOR (serine 2448), p-TSC2 (threonine 1462), and p-S6K (threonine 389). Levels of total Akt, mTOR, TSC2, S6K, and β-actin were used as internal controls. All experiments were repeated at least 3 times. For isolation of PD5 oocytes for western blot, 10-15 Pten^loxP/loxP; GCre+ or Pten^loxP/loxP mice were used for each lane. For isolation of PD12-14 oocytes, 3-5 Pten^loxP/loxP^P; GCre+ mice or 6-10 Pten^loxP/loxP mice were used per lane. In each lane, 30-40 μg of protein sample was loaded.
Thus, activation of the pool of primordial follicles ends up with follicle depletion. This causes POF (premature ovarian failure) in Pten^loxP/loxP; GCr+ mice. The phenotype observed in these mice resembles that of human POF (Beck-Peccoz and Persani, Orphanet. J. Rare. Dis. 2006, 1: 9). […]

Molecule | proliferation and differentiation of flattened pre-granulosa cells into cuboidal granulosa cells [1] | survival rate of follicles in the cultured ovaries [1] | activation of Akt (p-Akt, serine 473) [2]
Dipotassium Bisperoxo(5-hydroxypyridine-2-carboxyl)oxovanadate (V) [bpV-HOpic] | stimulates the proliferation and differentiation of flattened pre-granulosa cells | enhances the survival rate of follicles | –
Kit ligand (KL): Kit ligand, activates the PI3K pathway in growing oocytes through its oocyte surface receptor Kit (protein, UniProt P20826 26-190, looked up) Soluble KIT ligand: KEICGNPVTDNVKDITKLVANLPNDYMITLNYVAGMDVLPSHCWLRDMVIQLSLSLTTLLDKFSNISEGLSNYSIIDKLGKIVDDLVLCMEENAPKNIKESPKRPETRSFTPEEFFSIFNRSIDAFKDFMVASDTSDCVLSSTLGPEKDSRVSVTKPFMLPPVAA | – | – | activated Akt to a greater extent

Source: patent publication US9259438B2, “Methods for in vitro maturation of ovarian follicles” (priority 2008, dated 2016)
